Residues, ends and D or L forms follow the SMILES beside them. *: point of attachment. Cbz = O=C(OCc1ccccc1)* Bounds are passed on as bounds.

One molecule from US20150368616A1, “METHODS FOR INDUCTION OF CELL FATES FROM PLURIPOTENT CELLS” (THE CLEVELAND CLINIC FOUNDATION, priority 2013, published 2015) can be followed below.

For one data set, the system named is Ngn3 protein. Description: Ngn3 protein stability and half-life in HepG2 cells, cycloheximide time course, Western blot. In kind it is cell-based. To be noted: HepG2 cells exposed to MG132, CHX time course. An excerpt:
I. Protein stability and half-life assessment of Ngn3 in HepG2 cells. HepG2 cells were transfected with pTRE2-Ngn3 and pCMV-rtTA, treated with Doxycycline for 24 hr, and on the subsequent day pre-exposed to the proteasomal inhibitor MG132 for 5 hr. At time t=0, protein synthesis was inhibited by cycloheximide (CHX). Western blot using anti-Ngn3 antibodies are shown; b-actin served as a control, and remains stable. MG132 treatment leads to Ngn3 protein accumulation at t=0, and strongly stabilizes the protein, which rapidly decays in non-treated cells. J. Experiment conducted similarly as in I, but CMV-driven versions of Notch1 and Notch2 intracellular domains (N1ICD, N2ICD respectively) (left), or dominant-negative mastermind-like1 (DN-MAML1) were co-transfected with pTRE2-Ngn3. The left-most blot is overexposed to reveal the lower level of accumulated Ngn3 protein in presence of N1ICD, N2ICD, and the loss of Ngn3 upon CHX treatment. The analysis was done 1 hr post CHX treatment. […] K. Mouse pancreatic E14.5 explants were subjected to short-term treatment of CHX (1 hr) and MG132 (5 hr pre, and post-culture) as indicated. Total protein was isolated and subjected to anti-Ngn3 Western blotting. Levels of Ngn3 increase in presence of MG132, and decrease in response to CHX. Ngn3 protein levels increase correspondingly in presence of DAPT, a condition where the protein remains stable (CHX+DAPT lane). L. Stability measurements of Ngn3 in the presence of various cellular regulatory proteins. The experiment was conducted as in I and J. Decay scans (right) provide a measure of the decay rate of Ngn3. In all cases, the t=0 Ngn3 levels prior to CHX treatment is paralleled by the relative half-life of the protein. Destabilizing conditions include N1ICD, N2ICD, and Hes1. Stabilizing conditions include DN-MAML1 and DAPT-treatment. […] Hes1 is able to destabilize Ngn3 in the presence of DN-MAML1.
While Hes1 is known to directly repress Ngn3 expression, this would be an insufficient explanation for the observed results in which Ngn3 was driven by a Pdx1-tTA;tetO governed system. […] As destabilization of other bHLH factors, including NGN, and hASH1 has been observed, which has also implicated Notch, we then tested if a similar mechanism might operate in pancreas. As a means to mechanistically address this question, we first determined if Ngn3 protein half-life was regulated by proteasomal activity. Using three different heterologous cell lines (HepG2, Hek293, and CHO) conditionally expressing Ngn3, we observed a rapid turnover of Ngn3 protein after cycloheximide (CHX) addition; conditions where the control protein, beta-Actin, remained stable (FIG. 34I and data not shown). […]
For orientation: In western blotting, separated proteins are transferred to a membrane and probed.

For another data set, the system named is endogenous Ngn3. The experiment in a line: Mouse pancreatic E14.5 explants treated with CHX, MG132, DAPT; anti-Ngn3 Western blotting. The format is cell-based. Particulars: E14.5 mouse pancreatic explants, MG132 5 hr. The source says:
I. Protein stability and half-life assessment of Ngn3 in HepG2 cells. HepG2 cells were transfected with pTRE2-Ngn3 and pCMV-rtTA, treated with Doxycycline for 24 hr, and on the subsequent day pre-exposed to the proteasomal inhibitor MG132 for 5 hr. At time t=0, protein synthesis was inhibited by cycloheximide (CHX). Western blot using anti-Ngn3 antibodies are shown; b-actin served as a control, and remains stable. MG132 treatment leads to Ngn3 protein accumulation at t=0, and strongly stabilizes the protein, which rapidly decays in non-treated cells. J. Experiment conducted similarly as in I, but CMV-driven versions of Notch1 and Notch2 intracellular domains (N1ICD, N2ICD respectively) (left), or dominant-negative mastermind-like1 (DN-MAML1) were co-transfected with pTRE2-Ngn3. The left-most blot is overexposed to reveal the lower level of accumulated Ngn3 protein in presence of N1ICD, N2ICD, and the loss of Ngn3 upon CHX treatment. The analysis was done 1 hr post CHX treatment. […]
While Hes1 is known to directly repress Ngn3 expression, this would be an insufficient explanation for the observed results in which Ngn3 was driven by a Pdx1-tTA;tetO governed system. […] As a means to mechanistically address this question, we first determined if Ngn3 protein half-life was regulated by proteasomal activity. […]

Data set [1] relates to forward differentiating hES culture. Description: Two stage protocol: Pan-CM 8 days then second stage medium with MG132, DAPT, forskolin, sodium propionate; transcript analysis. The format is cell-based, human. To be noted: 8 days Pan-CM then second stage medium. The method, then:
As a means to optimize the differentiation of insulin producing cells a two stage protocol was used in which pluripotent cultures were incubated in the presence of Pan-CM for 8 days as a means of generating pancreatic precursors cellular population. The medium these cultures were incubated in were subsequently changed to a medium designed to enhance differentiation of a pancreatic precursor towards a beta-cell terminal fate. All second stage experiments were performed in a medium composed of DMEM/F12 containing 12 mM Glucose supplemented with 1% B27, 1% Pyruvate, 1 uM Alk5 Inh II, 500 ng/ml Noggin and 0.5 uM (1,25 OH2)-Vit D3.
Among the compounds assayed for the ability to increase insulin production in a forward differentiating culture was the proteosomal inhibitor MG132 which we used in the previous example to stabilize Ngn3 protein. We also included the gamma secretase inhibitor DAPT, which was shown in the previous example to greatly increase beta-cell formation in the developing embryonic pancreatic explant study. We also included the short fatty acid salt sodium propionate, which acts as an agonist of short-chain fatty acid receptors. We also included the adenylyl cyclase activator forskolin. We also included the nuclear hormone receptor agonist 1,25 (OH)2)-Vit D3, which binds to, and activates the VDR protein. We also used intermediate concentrations of glucose, shown by others to increase formation of insulin producing cells from pluripotent derivatives. These compounds were used individually or in combination (as outlined in FIG. 37 panel A) to increase insulin-producing endocrine cell formation in a short term Pan-CM treated forward differentiating hES culture system.

Data set [2] deals with Forward differentiating hES cultures. Description: Pan-CM two weeks then maturation medium with daily MG132 pulse, transcript analysis. The format is cell-based, human. The method, then:
To successfully differentiate an insulin producing cell a two stage approach was developed. Schematically represented in panel A, pluripotent cultures were treated with Pan-CM for two weeks followed by a switch to a maturation medium (abbreviated MM within panel B) composed of DMEM/F12 with 12 mM glucose supplemented with 5 uM DAPT, 0.5 uM Vit D3, 1% B27, 1 uM Alk 5 Inhibitor and 1 mM Sodium Propionate. In addition cultures were treated with the proteasome inhibitor MG132 at 10 uM for a 4 hour pulse daily for the length of the experiment. We have previously shown that MG132 mediated inhibition of protein degradation promotes sustained Ngn3 signaling resulting in increased endocrine differentiation. […] Substantial increases in several of the endocrine specific genes are observed.
Forward differentiating hES cultures were incubated for two weeks in the presence of Pan-CM at which time culture conditions were changed to a defined maturation medium in addition to being treated daily with MG132. Control cultures remained within Pan-CM for the entire duration of the experiment. […] Transcript levels of Slc30A8, a gene associated with the transport of zinc during the processing of insulin, were increased ˜200 fold when forward differentiating cultures were exposed to MG132. […] It is important to note that while the absolute Glucagon transcript level fold increase was greater than that of insulin, when comparing the effects of forward differentiating cultures treated with Mg132 as to those which were solely treated with Pan-CM there was an ˜5 fold greater increase in relative Glucagon transcript levels as compared to an ˜24 fold greater increase in Insulin transcript levels. […] A similar low increase was also noted for the intestinal specific transcripts Cdx2 and Gucy2c genes, with only an ˜15 and ˜30 fold increase over hES transcript levels.
Also it is important to note that while all of the transcripts assayed throughout this series of experiments were increased in the cultures treated with MG132 the increase in pancreas specific transcripts was always far greater than the increases observed in non-pancreas specific transcripts (i.e., transcripts representative of the liver and intestines).

Where [3] appears, read: two weeks Pan-CM then maturation medium, MG132 daily.

On to `CC(C)C[C@@H](C=O)NC(=O)[C@H](CC(C)C)NC(=O)[C@H](CC(C)C)NC(=O)OCc1ccccc1` [MG132, benzyl (S)-4-methyl-1-((S)-4-methyl-1-((S)-4-methyl-1-oxopentan-2-ylamino)-1-oxopentan-2-ylamino)-1-oxopentan-2-ylcarbamate] (Cbz-Leu-Leu-Leu-aldehyde), for which, in the data set on Ngn3 protein, the “half-life of Ngn3 (T1/2)” value was > 3 h. Besides, the “loss of endogenous Ngn3 following exposure to CHX” value in the data set with endogenous Ngn3 is given as “abrogated”. Further, in data set [1], the Glucagon transcript levels entry is on record as “remaining approximately the same as controls”, the Hnf6 transcript increase is listed as ~90 fold, the “Insulin transcript levels increase over controls” value was ~80 fold and the Nkx6.1 transcript increase is ~12.5 fold. For the same molecule, the Pdx1 transcript increase in data set [1] is ~40 fold. In data set [2], the AFP transcript increase is ~85 fold, the Albumin transcript increase is reported as ~50 fold, the “Cdx2 increase over hES transcript levels” value is ~15 fold and the “Glucagon transcript increase compared to cultures solely treated with Pan-CM” value is listed as ~5 fold. Besides, in data set [2], the “Gucy2c increase over hES transcript levels” value is reported as ~30 fold and the “Insulin transcript increase compared to cultures solely treated with Pan-CM” value was ~24 fold. Also, the “effect of long incubations on the culture” value in data set [2] (forward differentiating culture) was “overall detrimental effect on the culture”. Also, in data set [2] (setting [3]), the “Glucagon absolute relative level over hES levels” value is recorded as ~2000 fold, the “Insulin absolute relative level over hES levels” value was ~600 fold, the “Mafa relative increase over control conditions” value is ~200 fold and the “Pax4 relative increase over control conditions” value is listed as ~300 fold. Also, the “Slc30A8 transcript levels increase” value in data set [2] (setting [3]) was ~200 fold.
